Source: ChEMBL document CHEMBL1201862, “PubChem BioAssay data set” (2004)
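96-well plates; 48 h exposure; 5 concentrations. Endpoints by linear interpolation between flanking doses. Not reached: highest tested concentration assigned. Here, GI50 denotes the concentration required for 50% inhibition of growth.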 Calls of active or inactive are those of the source. No stated cut-off is given here; in the data, active = GI50 up to about 1.1 µM and inactive = higher.

Columns and labels:
Experiment in all cases: DTP human tumour cell line panel, 48 h
[1] = system: DU-145
[2] = system: KM12
[3] = system: SK-MEL-2
[4] = system: NCI/ADR-RES
[5] = system: T47D
[6] = system: HL-60
[7] = system: SK-OV-3
[8] = system: UACC-62
[9] = system: RPMI-8226
[10] = system: SK-MEL-28
[11] = system: SR
[12] = system: SF-268
[13] = system: A549
[14] = system: MDA-MB-231
[15] = system: TK-10
[16] = system: HT-29
[17] = system: UACC-257
[18] = system: SNB-75
[19] = system: NCI-H226

SMILES: O=C(O)c1cccc(NC(C(=O)c2ccccc2)c2ccccc2)c1 (centres undefined)
- GI50 [1]: > 100 µM (inactive)
- GI50 [2]: > 100 µM (inactive)
- GI50 [3]: > 100 µM (inactive)
- GI50 [4]: > 100 µM (inactive)
- GI50 [5]: > 100 µM (inactive)
- GI50 [6]: > 100 µM (inactive)
- GI50 [7]: > 100 µM (inactive)
- GI50 [8]: > 100 µM (inactive)
- GI50 [9]: > 100 µM (inactive)
- GI50 [10]: > 100 µM (inactive)
- GI50 [11]: > 100 µM (inactive)
- GI50 [12]: > 100 µM (inactive)
- GI50 [13]: > 100 µM (inactive)
- GI50 [14]: > 100 µM (inactive)
- GI50 [15]: > 100 µM (inactive)

SMILES: O=C1c2c(O)cc(O)cc2C(C2OC(CO)C(O)C(O)C2O)c2cc(CO)cc(O)c21 (centres undefined)
- GI50 [1]: > 100 µM (inactive)
- GI50 [4]: > 100 µM (inactive)
- GI50 [16]: > 100 µM (inactive)
- GI50 [5]: > 100 µM (inactive)
- GI50 [17]: > 100 µM (inactive)
- GI50 [18]: 22.5 µM (inactive)
- GI50 [6]: > 100 µM (inactive)
- GI50 [7]: > 100 µM (inactive)
- GI50 [8]: > 100 µM (inactive)
- GI50 [9]: > 100 µM (inactive)
- GI50 [10]: > 100 µM (inactive)
- GI50 [11]: > 100 µM (inactive)
- GI50 [12]: > 100 µM (inactive)
- GI50 [19]: > 100 µM (inactive)
- GI50 [13]: > 100 µM (inactive)
- GI50 [14]: > 100 µM (inactive)
- GI50 [15]: > 100 µM (inactive)

SMILES: Cc1cccc(NC(=O)CCl)c1
- GI50 [1]: > 10 µM (inactive)
- GI50 [2]: > 10 µM (inactive)
- GI50 [3]: > 10 µM (inactive)
- GI50 [4]: > 10 µM (inactive)
- GI50 [16]: 7.87 µM (inactive)
- GI50 [5]: > 10 µM (inactive)
- GI50 [17]: > 10 µM (inactive)
- GI50 [6]: 3.56 µM (inactive)
- GI50 [7]: > 10 µM (inactive)
- GI50 [8]: 5.64 µM (inactive)
- GI50 [9]: > 10 µM (inactive)
- GI50 [10]: > 10 µM (inactive)
- GI50 [11]: 9.93 µM (inactive)
- GI50 [12]: 8.69 µM (inactive)
- GI50 [19]: 7.36 µM (inactive)
- GI50 [13]: > 10 µM (inactive)
- GI50 [14]: 5.93 µM (inactive)
- GI50 [15]: > 10 µM (inactive)

SMILES: CCCCCCc1cc(C=O)sc1-c1ccc(-c2sc(-c3ccc(-c4ccc(-c5cc(CCCCCC)c(-c6ccc(-c7sc(C=O)cc7CCCCCC)s6)s5)s4)s3)cc2CCCCCC)s1
- GI50 [1]: > 100 µM (inactive)
- GI50 [2]: > 100 µM (inactive)
- GI50 [3]: > 100 µM (inactive)
- GI50 [4]: > 100 µM (inactive)
- GI50 [16]: > 100 µM (inactive)
- GI50 [5]: > 100 µM (inactive)
- GI50 [17]: > 100 µM (inactive)
- GI50 [6]: > 100 µM (inactive)
- GI50 [7]: > 100 µM (inactive)
- GI50 [8]: > 100 µM (inactive)
- GI50 [9]: > 100 µM (inactive)
- GI50 [10]: > 100 µM (inactive)
- GI50 [11]: > 100 µM (inactive)
- GI50 [12]: 85.9 µM (inactive)
- GI50 [19]: 28.4 µM (inactive)
- GI50 [13]: > 100 µM (inactive)
- GI50 [14]: > 100 µM (inactive)
- GI50 [15]: > 100 µM (inactive)

SMILES: CC1=CCC(C)=Nc2nc3ccccc3n21
- GI50 [1]: > 100 µM (inactive)
- GI50 [2]: > 100 µM (inactive)
- GI50 [3]: > 100 µM (inactive)
- GI50 [4]: > 100 µM (inactive)
- GI50 [16]: > 100 µM (inactive)
- GI50 [5]: > 100 µM (inactive)
- GI50 [17]: > 100 µM (inactive)
- GI50 [6]: > 100 µM (inactive)
- GI50 [7]: > 100 µM (inactive)
- GI50 [8]: > 100 µM (inactive)
- GI50 [9]: > 100 µM (inactive)
- GI50 [10]: > 100 µM (inactive)
- GI50 [11]: > 100 µM (inactive)
- GI50 [12]: > 100 µM (inactive)
- GI50 [19]: > 100 µM (inactive)
- GI50 [13]: > 100 µM (inactive)
- GI50 [14]: > 100 µM (inactive)
- GI50 [15]: > 100 µM (inactive)

SMILES: CC(=O)OC1(C)CC(C)C(=O)C(C(O)CC2CC(=O)NC(=O)C2)C1 (centres undefined)
- GI50 [1]: 0.0118 µM (active)
- GI50 [2]: 0.00746 µM (active)
- GI50 [3]: 0.00752 µM (active)
- GI50 [4]: 0.0386 µM (active)
- GI50 [16]: 0.00798 µM (active)
- GI50 [5]: 0.0179 µM (active)
- GI50 [17]: 0.0262 µM (active)
- GI50 [18]: 0.504 µM (active)
- GI50 [6]: 0.00955 µM (active)
- GI50 [8]: 0.082 µM (active)
- GI50 [9]: 0.0118 µM (active)
- GI50 [10]: 0.00776 µM (active)
- GI50 [11]: 0.00185 µM (active)
- GI50 [12]: 0.0329 µM (active)
- GI50 [19]: 0.0448 µM (active)
- GI50 [13]: 0.00729 µM (active)
- GI50 [14]: 0.0137 µM (active)
- GI50 [15]: 0.0859 µM (active)
